Publication PMC8402715 (Viruses, 2021)

What was measured:
[1] = tested on: FLUAV-infected RPE cells; assay: Metabolomics of polar metabolites in media of FLUAV-infected RPE cells; conditions: infected RPE cells (FLUAV moi 1), 10 μM, 24 h
[2] = tested on: host genes in mock-infected RPE cells; format: cell-based, human; conditions: 10 μM, 8 h; for expression of PTGS2: mock-infected RPE cells; for expression of PDE4D, CRISPLD2 and PTGES / expression of SLC26A4, FAM111B and CCNE2: non-infected RPE cells, compared to non-treated cells
[3] = tested on: host genes in FLUAV-infected RPE cells; format: cell-based, human; conditions: 10 μM, 8 h; for expression of PTGS2: virus-infected RPE cells (FLUAV moi 1); for FLUAV-activated host gene expression: FLUAV-infected RPE cells (moi 1)
[4] = Cell viability assay (Cell Titer Glow) in mock-infected RPE cells, cytotoxicity; conditions: human
[5] = tested on: viral RNAs of influenza A/WSN/33(H1N1) virus; format: cell-based, influenza A virus in human RPE cells

Row | SMILES | levels of many polar metabolites in the media [1] | expression of PTGS2 [2] | expression of PTGS2 [3] | CC50 at 48 h [4] [µM] | further results
1 | CC(=O)Nc1ccc(O)cc1 [4-acetamidophenol] | elevated |  |  |  | 
2 | C#C[C@]1(O)CC[C@H]2[C@@H]3CCc4cc(O)ccc4[C@H]3CC[C@@]21C [17a-ethynylestradiol] | elevated |  |  |  | 
3 | CC(=O)Oc1ccccc1C(=O)O [acetylsalicylic acid, Acetylsalicylic acid] | elevated |  |  |  | 
4 | CCOC(=O)C1=C(COCCN)NC(C)=C(C(=O)OC)C1c1ccccc1Cl (stereo not shown) [amlodipine, Amlodipine] | elevated | increased | increased |  | 
5 | CCCCNc1cc(C(=O)O)cc(S(N)(=O)=O)c1Oc1ccccc1 [bumetanide, Bumetanide] | elevated |  |  |  | 
6 | CCOc1nc2cccc(C(=O)O)c2n1Cc1ccc(-c2ccccc2-c2nnn[nH]2)cc1 [candesartan, Candesartan] | elevated |  |  |  | 
7 | C#C[C@]1(O)CC[C@H]2[C@@H]3CCC4=CCCC[C@@H]4[C@H]3C(=C)C[C@@]21CC [desogestrel, Desogestrel] |  |  |  | 34.5 | 
8 | C[C@]12CCC(=O)C=C1[C@@H]1C[C@@H]1[C@H]1[C@@H]3[C@@H]4C[C@@H]4[C@@]4(CCC(=O)O4)[C@@]3(C)CC[C@@H]12 [drospirenone, Drospirenone] |  | increased | increased |  | 
9 | COc1ccc2nc([S@@+]([O-])Cc3ncc(C)c(OC)c3C)[nH]c2c1 [esomeprazole, Esomeprazole] |  | increased | increased |  | 
10 | COC(=O)C1=C(C)NC(C)=C(C(=O)OC(C)(C)CN(C)CCC(c2ccccc2)c2ccccc2)C1c1cccc([N+](=O)[O-])c1 (stereo not shown) [lercanidipine, Lercanidipine] |  | increased | increased |  | 
11 | CN(C)C(=N)N=C(N)N [metformin, Metformin] |  |  |  |  | effect on polyadenylated viral RNAs [5]: differentially affected
12 | CC(C)(C)NCC(O)c1ccc(O)c(CO)c1 (stereo not shown) [salbutamol, Salbutamol] |  |  |  |  | expression of PDE4D, CRISPLD2 and PTGES [2]: increased; expression of SLC26A4, FAM111B and CCNE2 [2]: decreased; FLUAV-activated host gene expression [3]: did not affect
13 | OCc1cc(C(O)CNCCCCCCOCCCCc2ccccc2)ccc1O (stereo not shown) [salmeterol, Salmeterol] |  |  |  | 29.3 | expression of PDE4D, CRISPLD2 and PTGES [2]: increased; expression of SLC26A4, FAM111B and CCNE2 [2]: decreased; FLUAV-activated host gene expression [3]: did not affect
14 | CN[C@H]1CC[C@@H](c2ccc(Cl)c(Cl)c2)c2ccccc21 [sertraline, Sertraline] |  | increased | increased | 17.5 | 
15 | CCC(C)(C)C(=O)O[C@H]1C[C@@H](C)C=C2C=C[C@H](C)[C@H](CC[C@@H]3C[C@@H](O)CC(=O)O3)[C@H]21 [simvastatin, Simvastatin] |  | increased | increased | 48.3 | 
16 | C=C1CC[C@H](O)C/C1=C/C=C1\CCC[C@]2(C)[C@@H]([C@H](C)/C=C/[C@H](C)C(C)C)CC[C@@H]12 [vitamin D2, Vitamin D2] |  |  |  | 42.1 | 
17 | C=C1CC[C@H](O)C/C1=C/C=C1\CCC[C@]2(C)[C@@H]([C@H](C)CCCC(C)C)CC[C@@H]12 [vitamin D3, Vitamin D3 (colecalciferol)] |  |  |  | 48.8 | 
